Results taken from patent publication US20220265814A1, “R[…] FOR CORONA VIRUS DISEASE 19 AND COMBINATION THERAPY USING THE SAME” (priority 2021, published 2022).

Experiments:
Assay type in all cases: cell-based
[1] = tested on: recombinant adenovirus (GFP tagging); experiment: antiviral activity against recombinant adenovirus (GFP fluorescence intensity) in HEK293A cells; conditions: for inhibition at 50 µM: unidentified adenovirus, HEK293-A, 72 h, read-out: virus inhibitory activity
Procedure: (§1) After dispensing HEK293A cells at 10,000 cells/well on a 96-well plate and stabilizing for 24 hours, the recombinant adenovirus (GFP tagging, MOI=0.5) prepared in Example and 18 compounds listed in Table 1 below (50 μM)) were treated and incubated for 24, 48 and 72 hours, the GFP fluorescence intensity (Excitation=485 nm, Emission=528 nm) was observed.

[2] = tested on: HEK293A cells; experiment: cell death / cytotoxicity in compound-treated HEK293A cells; conditions: 50 μM compound, after 72 hours of treatment
[3] = tested on: COVID-19 virus (COVID19 recombinant adenovirus); experiment: COVID19 antibody-antigen polymerization reaction on combination treatment with ECCA A (Cyto X cell viability)
[4] = tested on: Herpes simplex virus (HSV); experiment: antiviral activity against herpes simplex virus (HSV), same manner as the adenovirus test; conditions: 50 μM, after 24 hours, 48 hours and 72 hours (FIG. 14)
Procedure: as §1
The experiment was performed in the same manner as in the previous experiment, except that the virus type was changed to HSV and the antiviral activity was examined.

C=C(C)[C@@H]1CC[C@]2(C(=O)O)CC[C@]3(C)[C@H](CC[C@@H]4[C@@]5(C)[C@@H](C(=O)O)[C@H](O)C(C)(C)[C@@H]5CC[C@]43C)[C@@H]12 [Compound C2, Ceanothic acid]
inhibition at 50 µM [1]: ≥ 50%

C=C(C)[C@@H]1CC[C@]2(C(=O)O)CC[C@]3(C)[C@H](CC[C@@H]4[C@@]5(C)C[C@@H](OC(=O)/C=C/c6ccc(O)cc6)[C@H](O)C(C)(C)[C@@H]5CC[C@]43C)[C@@H]12 [Compound C4, 2-O-E-p-coumaroyl alphitolic acid]
virus inhibitory activity (in words) ([1]; 50 μM compound, HEK293A cells, recombinant adenovirus MOI=0.5): excellent virus inhibitory activity
cell death [2]: 100%

C=C(C)[C@@H]1CC[C@]2(C(=O)O)CC[C@]3(C)[C@H](CC[C@@H]4[C@@]5(C)CC[C@H](O)C(C)(C)[C@@H]5CC[C@]43C)[C@@H]12 [Compound C10, ECCA A]
antiviral activity on adenovirus, compared among C2, C6, C8 and C10 ([1]; 50 μM, after 24 hours, 48 hours and 72 hours (FIG. 13)): most excellent
inhibition at 50 µM [1]: ≥ 50%
antigen-antibody polymerization reaction [3]: effective antigen-antibody polymerization reaction was confirmed
binding to the antigen fusion protein [3]: excellent
antiviral activity on HSV [4]: most excellent
